# From patent US7022699B2, “Cyclohexenyl phenyl diazepines vasopressin and oxytocin receptor modulators” (Wyeth, priority 2001, dated 2006)
# Target: T1, human oxytocin receptor (Homo sapiens, UniProt P30559)
# T1 construct: host or cells: CHO cells, stably transfected (pcDNA3.1 vector); membranes
# T1 sequence (P30559 1-389): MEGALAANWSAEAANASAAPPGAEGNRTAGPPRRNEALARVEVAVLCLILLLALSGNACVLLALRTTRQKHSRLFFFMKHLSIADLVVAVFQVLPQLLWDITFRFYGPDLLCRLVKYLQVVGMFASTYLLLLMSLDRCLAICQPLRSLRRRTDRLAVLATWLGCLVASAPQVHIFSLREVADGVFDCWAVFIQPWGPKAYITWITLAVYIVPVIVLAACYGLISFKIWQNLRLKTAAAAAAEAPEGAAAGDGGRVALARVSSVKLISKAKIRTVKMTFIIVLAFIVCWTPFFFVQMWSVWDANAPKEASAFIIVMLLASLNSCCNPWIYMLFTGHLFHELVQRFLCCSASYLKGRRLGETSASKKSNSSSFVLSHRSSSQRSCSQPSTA
# Test: Oxytocin binding in CHO cell membranes expressing human oxytocin receptors ([3H]oxytocin)
# Settings: 100 nM, values without parentheses
# Source text: Oxytocin Binding in Chinese Hamster Ovary Cell Membranes Expressing Human Oxytocin Receptors
# Chinese Hamster Ovary (CHO) cells stably transfected with the human oxytocin (cf. Tanizawa et al., U.S. Pat. No. 5,466,584 (1995) to Rohto Pharmaceutical Co. Ltd., Osaka, Japan) were obtained from M. Thibonnier, Case Western Reserve University School of Medicine, Cleveland, Ohio. A. Passaging and Amplification of Cells: CHO cells transfected with the human oxytocin receptors obtained from M. Thibonnier (pcDNA3.1 vector) are allowed to grow to confluency (approx. >90%) in T-150 flasks under sterile conditions, in a cell culture medium of F-12 Nutrient Mixture (HAM) with L-glutamine (Gibco Cat. #11765-054) containing 15 mM HEPES (Gibco Cat. #15630-080), 1% antibiotic/antimycotic (add 5 mL 100×, Gibco Cat. #15240-062 per 500 mL F-12), 400 μg/mL of Geneticin (add 4 mL of 50 mg/mL per 500 mL F-12) and 10% Fetal Bovine Serum (Qualified, heat inactivated, Gibco Cat. #16140-063). The medium is removed by aspiration and the cells are washed with 10 mL of Hank's Balanced Salt solution (Gibco Cat. #14175-095). The salt solution is removed by aspiration and the cells trypsinized with 5 mL of trypsin-EDTA (0.05% trypsin, 0.53 mM EDTA-4Na, Gibco Cat. #25300-070) for 1 min. The trypsin is removed by aspiration and the cells dislodged by tapping. Cell Culture medium (e.g. 30 mL for 1:30 split) is immediately added and mixed well to inactivate trypsin. 1 mL of detached cells is added to new culture flasks containing fresh Cell Culture medium (e.g. into 25 mL per T-150 flask), and mixed gently. The cells are incubated at 37° C. in 5% CO2. The medium is changed at 3 to 4 days interval (or as appropriate). The cells grow to confluency (approx. >75%–95%) within 7–8 days. All steps are done under sterile conditions. B. Membrane Preparation: The cells are washed twice gently with Hank's Balanced Salt solution (e.g., use 10 mL per T-150 flask). The excess is removed and the cells bathed for 15–30 min. in an enzyme-free Cell Dissociation Buffer (e.g., use 8 mL Hank's Based, Gibco Cat. #13150-016 per T-150 flask) until cells are loosened. The contents are transferred to centrifuge tubes (50 mL size) kept in ice bath. All subsequent steps are done at 4° C. The tubes are centrifuged at 300×g for 15 min (1380 rpm on SORVAL, Model RT6000D, using rotor for 50 mL tubes). The supernatant is discarded and the cells suspended in homogenizing buffer (10 mM Tris-HCl containing 0.25 M sucrose and 1 mM EDTA, pH 7.4) ensuring that the volume of the buffer is about ten times the volume of the cell pellet. The cells are pooled into a centrifuge tube (50 mL) and homogenized with Polytron at setting 6 for 10 sec. The homogenate is transferred into a Potter-Elvjehm homogenizer and homogenized with 3 strokes. The homogenate is centrifuged at 1500×g for 10 min at 4° C. (3100 rpm using SORVAL, model RT6000D, using rotor for 50 mL tubes). The pellet. is discarded. The supernatant is centrifuged at 100,000×g for 60 min. at 4° C. (Beckman L8-80M ultracentrifuge; spin at 37,500 rpm with rotor type 70 Ti for 50 mL tubes; 38,000 rpm with type 80Ti for 15 mL tubes; or 35,800 rpm with rotor type 45Ti). The supernantant is discarded and the pellet suspended in 3 to 4 mL of Tris buffer (50 mM TRIS-HCl, pH 7.4). The protein content is estimated by the Bradford or Lowry method. The volume of the membrane suspension is adjusted with the membrane buffer (50 mM Tris-HCl containing 0.1% BSA and 0.1 mM PMSF) to give 3.0 mg/mL (or as appropriate) of protein. The membranes are aliquoted and stored at −70° C. C. Radioligand Binding Assay: In wells of a 96-well format microliter plate, is added 90, 110 or 130 μL (to make up a final volume of 200 μL) of assay buffer containing 50 mM of Tris-HCl (pH 7.4), […], 1 mg % aprotinin, 1 mg % leupeptin, 2 mg % 1,10-phenanthroline, 10 mg % trypsin inhibitor, and 0.1 mM PMSF. The inhibitors are added on the day of the experiment. […]
row,Compound,OT % inhibition @ 100 nM
1,"CC(C)(C)C1CCCC=C1c1ccc(C(=O)N2Cc3cccn3Cc3ccccc32)cc1 (centres unmarked) [Example 20, (10,11-5H-Dihydro-pyrrolo[2,1-c][1,4]benzodiazepin-10-yl)-[4-(6-tert-butyl-cyclohex-1-en-1-yl)-phenyl]-methanone]",27%
2,O=C(c1ccc(C2=CCC3CCC2C3)cc1)N1Cc2cccn2Cc2ccccc21 (centres unmarked) [Example 21],38%

# Same assay, conditions: 100 nM, values without parentheses, read-out: OT % inhibition @ 100 nM
row,Compound,inhibition at 0.1 µM
1,"CC1=C(c2ccc(C(=O)N3Cc4cccn4Cc4ccccc43)cc2C)CCCC1O (racemic) [Example 5, (10,11-Dihydro-5H-pyrrolo[2,1-c][1,4]benzodiazepin-10-yl)-[4-(3-hydroxy-2-methyl-cyclohex-1-en-1-yl)-3-methyl-phenyl]-methanone]",13%
2,"CC1=C(c2ccc(C(=O)N3Cc4cccn4Cc4ccccc43)cc2C)CCC[C@H]1O (single isomer, unassigned) [Example 41]",90%
3,"CC1=C(c2ccc(C(=O)N3Cc4cccn4Cc4ccccc43)cc2C)CCC[C@@H]1O (single isomer, unassigned) [Example 43]",96%
4,"Cc1cc(C(=O)N2Cc3cccn3Cc3ccccc32)ccc1C1=CCCCC1 [Example 2, (10,11-Dihydro-5H-pyrrolo[2,1-c][1,4]benzodiazepin-10-yl)-(4-cyclohex-1-en-1-yl-3-methyl-phenyl)-methanone]",96%
5,"CC1=C(c2ccc(C(=O)N3Cc4cccn4Cc4ccccc43)cc2C)CCCC1=O [Example 4, 3-[2-Methyl-4-(5H-pyrrolo[2,1-c][1,4]benzodiazepin-10(11H)-yl-carbonyl)phenyl]-2-methyl-cyclohex-2-en-1-one]",46%
6,"CC1=C(c2ccc(C(=O)N3Cc4cccn4Cc4ccccc43)cc2C)CCC[C@H]1O [Example 6, (10,11-Dihydro-5H-pyrrolo[2,1-c][1,4]benzodiazepin-10-yl)-[4-((3R)-3-hydroxy-2-methyl-cyclohex-1-en-1-yl)-3-methyl-phenyl]-methanone]",95%
7,"COc1cc(C2=CCCc3ccccc32)c(Cl)cc1C(=O)N1Cc2cccn2Cc2ccccc21 [Example 8, 10-[5-Chloro-4-(3,4-dihydro-naphthalen-1-yl)-2-methoxybenzoyl]-10,11-dihydro-5H-pyrrolo[2,1-c][1,4]benzodiazepine]",93%
8,"COc1cc(C2=C(C)C(=O)CCC2)c(Cl)cc1C(=O)N1Cc2cccn2Cc2ccccc21 [Example 9, 3-[2-Chloro-5-methoxy-4-(5H-pyrrolo[2,1-c][1,4]benzodiazepin-10(11H)-yl-carbonyl)phenyl]-2-methyl-cyclohex-2-en-1-one]",90%
9,"O=C(c1ccc(C2=CCCCC2)cc1Cl)N1Cc2cccn2Cc2ccccc21 [Example 10, (10,11-dihydro-5H-pyrrolo[2,1-c][1,4]benzodiazepin-10-yl)-[2-chloro-4-(cyclohex-1-en1-yl)-phenyl]-methanone]",95%
10,"O=C(c1ccc(C2=CCCc3ccccc32)cc1Cl)N1Cc2cccn2Cc2ccccc21 [Example 11, (10,11-Dihydro-5H-pyrrolo[2,1-c][1,4]benzodiazepin-10-yl)-[2-chloro-4-(3,4-dihydro-naphthalen-1-yl)-phenyl]-methanone]",65%
11,"CC1(C)CCCC=C1c1ccc(C(=O)N2Cc3cccn3Cc3ccccc32)c(Cl)c1 [Example 12, (10,11-Dihydro-5H-pyrrolo[2,1-c][1,4]benzodiazepin-10-yl)-[2-chloro-4-(6,6-dimethyl-cyclohex-1-en-1-yl)-phenyl]-methanone]",74%
12,"CC1=C(c2ccc(C(=O)N3Cc4cccn4Cc4ccccc43)c(Cl)c2)CCCC1=O [Example 13, (10,11-Dihydro-5H-pyrrolo[2,1-c][1,4]benzodiazepin-10-yl)-[2-chloro-4-(2-methyl-3-oxo-cyclohex-1-en-1-yl)-phenyl]-methanone]",98%
13,"CC1=C(c2ccc(C(=O)N3Cc4cccn4Cc4ccccc43)c(Cl)c2)CCCC1O (centres unmarked) [Example 14, (10,11-Dihydro-5H-pyrrolo[2,1-c][1,4]benzodiazepin-10-yl)-[2-chloro-4-(3-hydroxy-2-methyl-cyclohex-1-en-1-yl)-phenyl]-methanone]",27%
14,"CC1(C)CCCC=C1c1ccc(C(=O)N2Cc3cccn3Cc3ccccc32)cc1 [Example 17, (10,11-Dihydro-5H-pyrrolo[2,1-c][1,4]benzodiazepin-10-yl)-[4-(6,6-dimethyl-cyclohex-1-en-1-yl)-phenyl]-methanone]",76%
15,"O=C(c1ccc(C2=CCCc3ccccc32)cc1)N1Cc2cccn2Cc2ccccc21 [Example 18, (10,11-Dihydro-5H-pyrrolo[2,1-c][1,4]benzodiazepin-10-yl)-[4-(3,4-dihydro-naphthalen-1-yl)-phenyl]-methanone]",80%
16,"CC1=C(c2ccc(C(=O)N3Cc4cccn4Cc4ccccc43)cc2)C(C)CCC1 (centres unmarked) [Example 19, (10,11-Dihydro-5H-pyrrolo[2,1-c][1,4]benzodiazepin-10-yl)-[4-(2,6-dimethyl-cyclohex-1-en-1-yl)-phenyl]-methanone]",47%

# Same assay, conditions: values in parentheses, read-out: OT (IC50)
row,Compound,IC50
1,"COc1cc(C2=CCCCC2)c(Cl)cc1C(=O)N1Cc2cccn2Cc2ccccc21 [Example 1, 10-(5-Chloro-4-cyclohex-1-en-1-yl-2-methoxybenzoyl)-10,11-dihydro-5H-pyrrolo[2,1-c][1,4]benzodiazepine]",7.74 nM
2,"Cc1cc(C(=O)N2Cc3cccn3Cc3ccccc32)ccc1C1=CCCc2ccccc21 [Example 3, (10,11-Dihydro-5H-pyrrolo[2,1-c][1,4]benzodiazepin-10-yl)-[4-(3,4-dihydro-naphthalen-1-yl)-3-methyl-phenyl]-methanone]",24 nM
3,"CC1=C(c2ccc(C(=O)N3Cc4cccn4Cc4ccccc43)cc2)CCCC1 [Example 7, (10,11-Dihydro-5H-pyrrolo[2,1-c][1,4]benzodiazepin-10-yl)-[4-(2-methyl-cyclohex-1-en-1-yl)-phenyl]-methanone]",9.06 nM
4,"O=C(c1ccc(C2=CCCCC2)cc1)N1Cc2cccn2Cc2ccccc21 [Example 15, (10,11-Dihydro-5H-pyrrolo[2,1-c][1,4]benzodiazepin-10-yl)-(4-cyclohex-1-en-1-yl-phenyl)-methanone]",48.9 nM
5,"CC1CCCC=C1c1ccc(C(=O)N2Cc3cccn3Cc3ccccc32)cc1 (centres unmarked) [Example 16, (10,11-Dihydro-5H-pyrrolo[2,1-c][1,4]benzodiazepin-10-yl)-[4-(6-methyl-cyclohex-1-en-1-yl)-phenyl]-methanone]",21.8 nM
